Experimental data reported in PubChem BioAssay (NCI).
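Following 48 hours of exposure in 96-well plates, responses at five concentrations were used to interpolate endpoints linearly. Abbreviation: GI50, concentration required for 50% inhibition of growth. At the TGI there is no net growth.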

How the values were obtained:
Test in all cases: growth of human tumour cells (NCI), 48 h
[1] = system: 786-0 renal
[2] = system: HT29 colon
[3] = system: SK-MEL-2 melanoma
[4] = system: SNB-75 CNS
[5] = system: TK-10 renal
[6] = system: HCT-15 colon
[7] = system: HL-60(TB) leukemia
[8] = system: NCI/ADR-RES ovarian
[9] = system: SR leukemia
[10] = system: DU-145 prostate

SMILES | TGI [1] [µM] | TGI [2] [µM] | TGI [3] [µM] | TGI [4] [µM] | TGI [5] [µM] | TGI [6] [µM] | TGI [7] [µM] | TGI [8] [µM] | TGI [9] [µM] | GI50 [1] [µM] | GI50 [10] [µM] | TGI [10] [µM] | GI50 [6] [µM] | GI50 [2] [µM] | GI50 [8] [µM] | GI50 [7] [µM] | GI50 [3] [µM] | GI50 [4] [µM] | GI50 [5] [µM]
CC12CC3CC(C1)CC(N=[N+]=[N-])(C3)C2 | > 100 | > 100 | > 100 | > 100 | > 100 |  |  |  |  |  |  |  |  |  |  |  |  |  | 
CC(=O)c1c[nH]cc1CO | > 10 |  | > 10 | > 10 | > 10 | > 10 | > 10 | > 10 | > 10 |  |  |  |  |  |  |  |  |  | 
NC(CCSC(F)F)C(=O)O (stereo not drawn) | > 100 | > 100 | > 100 | > 100 | > 100 |  |  |  | > 100 |  |  |  |  |  |  |  |  |  | 
COc1cc([N+](=O)[O-])c(OC)cc1-c1nc2sc(Cl)cn2c1/C=N/NC(=N)N/N=C/c1c(-c2cc(OC)c([N+](=O)[O-])cc2OC)nc2sc(Cl)cn12 | 3.29 | > 100 |  |  |  | 22.5 |  | > 100 |  | 1.84 | 1.91 | 4.06 | 4.54 | 3.78 | > 100 |  |  |  | 
N#CN1CCC=C(c2cc3ccccc3[nH]2)C1 | > 448 | > 448 | > 448 |  | > 448 | > 448 | > 448 |  | > 448 |  |  |  |  |  |  |  |  |  | 
COc1cc(/C=C2/C(=O)NC(Cc3cc(OC)c(OC)c(C)c3OC)C(=O)N2Cc2ccccc2)c(OC)c(C)c1OC (stereo not drawn) | > 100 | > 100 | 66.8 | > 100 | > 100 |  | 53.3 |  | 54.1 |  |  |  |  |  |  |  |  |  | 
COC1=CC(=O)[C@]2(C)[C@H](C1=O)C(C)[C@H]2c1ccccc1 (stereo partly drawn) | > 100 | > 100 | > 100 | > 100 | > 100 | > 100 | > 100 |  | > 100 |  |  |  |  |  |  |  |  |  | 
CCOc1ccccc1NC(=O)C1=C(C)NC(C)=C(C(=O)Nc2ccccc2OCC)C1c1ccc(NC(C)=O)cc1 | > 100 | > 100 | 58.6 | 65.6 | > 100 |  | > 100 |  |  |  |  |  |  |  |  |  |  |  | 
[C-]#[N+]C(C)(C)C[C@H]1CC(C)C2CCC(C)C3([N+]#[C-])CCC(=C)C1[C@H]23 (stereo partly drawn) | 15.3 | 11.7 | 2.67 | 49.7 | 21.4 |  | 12.6 |  | 8.74 |  |  |  |  |  |  |  |  |  | 
CS/C(c1ccccc1)=[N+](/C)[O-] | > 100 | > 100 | > 100 | > 100 | > 100 | 41.1 | > 100 |  | 47.6 |  |  |  |  |  |  |  |  |  | 
O=C1c2c(nc3ccccc3c2-c2ccccc2)CN1Nc1ccccc1 | > 100 | > 100 | > 100 |  | > 100 |  | > 100 |  | > 100 |  |  |  |  |  |  |  |  |  | 
Cc1ccc(N2C(=O)/C(=C/c3ccc(N(CCC#N)CCC#N)cc3C)N=C2c2cc([N+](=O)[O-])ccc2Cl)cc1 | > 100 | > 100 | > 100 | > 100 | > 100 | > 100 | > 100 |  | > 100 |  |  |  |  |  |  |  |  |  | 
O=C1C[C@@H]2CCCC[C@@H]2C12SCCS2 | > 100 |  | > 100 | > 100 | > 100 | > 100 | > 100 |  |  |  |  |  |  |  |  |  |  |  | 
N#C[S-].[Au+].c1ccc(CN2[CH-]N(Cc3ccccc3)C(c3ccccc3)=C2c2ccccc2)cc1 | 1.91 |  | 1.26 | 2.65 | 1.98 |  | 2.34 |  |  | 0.444 | 0.479 | 1.69 |  |  |  | 0.414 | 0.337 | 0.385 | 0.583
Cc1ccc(C2=C(c3ccccc3)C(Br)(c3ccccc3)C(c3ccccc3)=C2c2ccc(C)cc2)cc1 | > 100 | > 100 | > 100 | > 100 | > 100 | > 100 | > 100 |  |  |  |  |  |  |  |  |  |  |  | 
COc1ccccc1/C=N/N=C(\N)NO | 90 | > 100 | > 100 |  |  | > 100 |  |  | > 100 |  |  |  |  |  |  |  |  |  | 
Cc1cccc2c1C/C(=C1\CCc3c(C)cccc31)C2=O | > 100 | > 100 | > 100 | > 100 | > 100 | > 100 | > 100 |  | > 100 |  |  |  |  |  |  |  |  |  | 
Cc1cc(=O)oc2cc(OCc3nc4ccccc4c(=O)[nH]3)ccc12 | > 100 | > 100 | > 100 | > 100 | > 100 | > 100 | > 100 |  |  |  |  |  |  |  |  |  |  |  | 
c1ccc(SC(CCCCOC2CCCCO2)Sc2ccccc2)cc1 (stereo not drawn) | > 100 | > 100 | > 100 | > 100 | > 100 | > 100 | 47.5 |  |  |  |  |  |  |  |  |  |  |  | 
